Reference: a melting point compilation (Tetko et al.)

## N#Cc1ccc(C=O)c(F)c1
  melting point: 79 to 81 °C

## COc1cc(C=O)cc(Cl)c1OC(C)C
  melting point: 34 to 36 °C

## O=C(O)C1CSC2(c3ccccc3)CCC(=O)N12 (stereo not drawn)
  melting point: 173 to 175 °C

## O=C(O)c1cnc(Cl)c([N+](=O)[O-])c1
  melting point: 126 to 128 °C

## CC(C)(C)c1cc(C(=O)O)[nH]n1
  melting point: 195 to 197 °C

## Nc1nc(SCCO)n[nH]1
  melting point: 126 to 128 °C

## CC(Oc1cccc(O)c1)C(N)=O (stereo not drawn)
  melting point: 129 to 131 °C

## NNC(=O)c1cc(-c2ccccc2)n[nH]1
  melting point: 207 to 209 °C

## CC(C)(C)OC(=O)N1CCc2ccccc21
  melting point: 46 to 50 °C

## Cc1cc(Cl)nc(-c2ccncc2)n1
  melting point: 119 to 121 °C

## CCCCn1c(N)cc(=O)n(C)c1=O
  melting point: 92 to 94 °C

## CCNC(=O)NC(=O)CCl
  melting point: 138 to 140 °C

## O=C(O)CCc1nnnn1-c1ccccc1
  melting point: 119 to 121 °C

## Nc1c(F)cccc1S(N)(=O)=O
  melting point: 136 to 138 °C

## Nc1ccn(Cc2ccncc2)n1
  melting point: 122 to 124 °C

## COc1cc(C(=O)O)ccc1OCCC(C)C
  melting point: 92 to 94 °C

## O=C(O)c1cc([N+](=O)[O-])cc(S(=O)(=O)Cl)c1
  melting point: 162 to 164 °C

## NC(=O)CCCO
  melting point: 42 to 44 °C

## NC1CCN(c2c(F)cccc2F)C1=O (stereo not drawn)
  melting point: 62 to 64 °C

## NNC(=O)c1cc(-c2ccccc2)on1
  melting point: 125 to 127 °C

## COc1cc(OC)c2c(-c3ccccc3)cc(S)nc2c1
  melting point: 230 to 232 °C

## O[C@@H]1CCCOc2ccccc21
  melting point: 89 to 91 °C

## O=C(Nc1cccc(CO)c1)c1ccccc1
  melting point: 114 to 116 °C

## N#Cc1ccc(CNC(=O)CCl)cc1
  melting point: 142 to 144 °C

## CC(O)c1ncc(Cl)n1C (stereo not drawn)
  melting point: 113 to 115 °C

## COc1ccc(-c2ccc(C(=O)O)c(F)c2)cc1
  melting point: 201 to 203 °C

## COC(=O)c1ccc(C=O)o1
  melting point: 79 to 81 °C

## CC1Nc2cc(=O)[nH]n2C(C)C1CC(=O)O (stereo not drawn)
  melting point: 235 to 237 °C

## Cc1nnc2n1CC(CO)CC2 (stereo not drawn)
  melting point: 158 to 160 °C

## Cc1ccc(-c2nc(C(=O)O)cs2)n1C
  melting point: 139 to 141 °C

## CC(C)(C)C(=O)c1ccsc1N
  melting point: 101 to 103 °C

## Nc1cc(-c2cccs2)nn1CCO
  melting point: 155 to 157 °C

## CC(=O)Nc1ccc(SCC(=O)O)cc1
  melting point: 156 to 158 °C

## CC1NC(=O)c2ccccc2N(C)C1=O (stereo not drawn)
  melting point: 250 to 252 °C

## O=C(O)CNC(=O)CC1CCCCC1
  melting point: 116 to 118 °C

## Cc1c(Cl)cnc(Cl)c1C#N
  melting point: 76 to 78 °C

## Nc1ccc(-c2nncn2-c2ccccc2)cn1
  melting point: 219 to 221 °C

## Nc1ccc(CC(=O)N2CCOCC2)cc1
  melting point: 164 to 166 °C

## N#Cc1cnn2c(O)cc(CCl)nc12
  melting point: 369 to 371 °C

## CC(=Cc1ccc(OCc2ccccc2)c(OCc2ccccc2)c1)C(=O)O
  melting point: 138 to 140 °C

## CN(C)C(=O)c1ccc(C(=O)O)cc1
  melting point: 178 to 180 °C

## CC1CCN(Cc2csc(N)n2)CC1
  melting point: 145 to 147 °C

## CCn1c(=O)[nH]c(=O)c2cc(C(=O)O)cnc21
  melting point: 316 to 318 °C

## O=C(O)CN1Cc2ccccc2C1=O
  melting point: 217 to 219 °C

## COc1ccc(Br)c2[nH]c(C(=O)O)cc12
  melting point: 246 to 248 °C

## CNC(=Nc1cc(C)nn1-c1ccccc1)c1ccc(F)cc1
  melting point: 227 to 228 °C

## CC(=O)Nc1ccc(S(=O)(=O)Cl)cc1[N+](=O)[O-]
  melting point: 89 to 91 °C

## CSCCC1NC(=O)NC1=O (stereo not drawn)
  melting point: 108 to 110 °C

## CC(N)c1cccc(NC(=O)c2ccccc2)c1 (stereo not drawn)
  melting point: 115 to 117 °C

## Nc1ccc(-c2ccccc2)nn1
  melting point: 145 to 147 °C

## CCOc1cc(C=O)ccc1OC(F)F
  melting point: 30 to 32 °C

## COCCn1cc(C(=O)O)c2ccccc21
  melting point: 123 to 125 °C

## CC(C)Oc1ccc(C(=O)O)cc1N
  melting point: 115 to 117 °C

## OCCn1ncc2ccccc21
  melting point: 48 to 50 °C

## CSc1nc(N)cc(O)n1
  melting point: 279 to 281 °C

## CC(C)(C)OC(=O)NCCC(=O)NC(N)=O
  melting point: 162 to 164 °C

## Cc1ccc(S(=O)(=O)N2CCC(=O)CC2)cc1
  melting point: 125 to 127 °C

## CCC(=O)Nc1ccc(C#N)cc1
  melting point: 174 to 176 °C

## CC(C)S(=O)(=O)Nc1ccc(S(N)(=O)=O)cc1F
  melting point: 134 to 136 °C

## CCOCCCNc1nnc(S)s1
  melting point: 63 to 65 °C

## O=C(O)C1CCCN(c2ncnc3sccc23)C1 (stereo not drawn)
  melting point: 214 to 216 °C

## O=Cc1ccc(OCc2occc2C(=O)O)cc1
  melting point: 145 to 147 °C

## CC(C)(C)Cc1cc(N)n[nH]1
  melting point: 106 to 108 °C

## CC(C)(C)OC(=O)N1CCC(CC#N)CC1
  melting point: 72 to 74 °C

## O=Cc1c(N2CCOCC2)nc2ccccn12
  melting point: 164 to 166 °C

## NS(=O)(=O)c1ccc(N2CCNCC2)cc1
  melting point: 219 to 221 °C

## O=C(CC1CCCCC1)Nc1cccc2c1CCCN2
  melting point: 192 to 194 °C

## Cc1cnc(-c2cccc(C(=O)O)c2)s1
  melting point: 210 to 212 °C

## CC(=O)N1CC(C)CNc2ccccc21 (stereo not drawn)
  melting point: 141 to 143 °C

## Cc1ccc(S(=O)(=O)NCC(=O)O)cc1C
  melting point: 123 to 125 °C

## CCCC(=O)NC1CCCNC1 (stereo not drawn)
  melting point: 57 to 59 °C

## O=C(CCl)c1ccc(I)cc1
  melting point: 127 to 129 °C

## Nc1cc(C(=O)O)c2ccccc2c1
  melting point: 178 to 180 °C
